Source: paper PMC6657685, “Cloning, purification, and characterization of GH3 β-glucosidase, MtBgl85, from Microbulbifer thermotolerans DAU221” (PeerJ, 2019)

Target: T1, MtBgl85 (Microbulbifer thermotolerans, UniProt Z9ZKX7DI54)
T1 construct: signal peptide (1-25, predicted) removed; N-terminal His6 tag (pCold I); expressed in E. coli BL21 (DE3); precursor 772 residues, mature 747 residues, 81,924 Da; about 85 kDa on SDS-PAGE; monomer
T1 sequence (Z9ZKX7DI54 26-772): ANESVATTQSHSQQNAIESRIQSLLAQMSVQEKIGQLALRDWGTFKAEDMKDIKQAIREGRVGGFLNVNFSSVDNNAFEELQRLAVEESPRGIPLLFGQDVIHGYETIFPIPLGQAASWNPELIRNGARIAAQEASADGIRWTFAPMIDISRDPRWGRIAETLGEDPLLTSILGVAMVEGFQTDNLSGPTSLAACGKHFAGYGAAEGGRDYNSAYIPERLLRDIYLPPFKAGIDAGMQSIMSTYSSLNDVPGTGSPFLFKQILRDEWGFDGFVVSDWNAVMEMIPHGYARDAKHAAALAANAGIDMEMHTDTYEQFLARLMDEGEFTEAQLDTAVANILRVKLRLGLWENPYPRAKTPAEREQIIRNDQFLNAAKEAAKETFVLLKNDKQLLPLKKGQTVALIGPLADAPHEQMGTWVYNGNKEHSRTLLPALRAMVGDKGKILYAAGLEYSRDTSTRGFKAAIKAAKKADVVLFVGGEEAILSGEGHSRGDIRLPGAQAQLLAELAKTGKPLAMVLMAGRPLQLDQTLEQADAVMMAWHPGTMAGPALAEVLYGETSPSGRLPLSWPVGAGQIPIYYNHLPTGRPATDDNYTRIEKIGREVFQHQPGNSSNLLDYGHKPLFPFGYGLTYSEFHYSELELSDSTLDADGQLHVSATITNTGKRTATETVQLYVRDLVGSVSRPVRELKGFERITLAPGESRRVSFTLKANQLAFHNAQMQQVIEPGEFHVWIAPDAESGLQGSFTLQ
Experiment: residual activity with pNPβG
Format: biochemical
Conditions: read-out: % residual activity at 10 mM

Compound: OC[C@H]1OC(O)[C@H](O)[C@@H](O)[C@@H]1O (stereo partly shown) [glucose]
- remaining activity at 10000 µM: 59%
